Usually IC50 stands for the concentration needed to halve the response being measured. Read a low IC50 as greater potency in that assay.

One experiment addresses MPS1 (Homo sapiens (Human), UniProt P33981). The experiment in a line: Biochemical assay for inhibitors of MPS1 kinase activity (trans-phosphorylation, Dowex). Particulars: 15 microM ATP, 200 microM P38-βtide substrate, 5 nM MPS1. How it is done:
Cloning, Expression and Purification of Recombinant MPS1 Full Length Protein.
MPS1 full length (corresponding to residues 2-857 of the full length sequence, see Swiss-Prot accession number P33981) was PCR amplified from the full-length human MPS1 gene present in house as clone pGEX4t_MPS1.
To get a fully activated enzyme, the protein was then subjected to auto-phosphorylation in presence of ATP 1 mM at 25° C. for 2 hours in kinase buffer (Hepes pH7.5 50 mM, MgCl2 2.5 mM, MnCl2 1 mM, DTT 1 mM, phosphatase inhibitors); ATP was then removed whit a desalting column.
Biochemical Assay for Inhibitors of MPS1 Kinase Activity
(§1) The inhibitory activity of putative kinase inhibitors and the potency of selected compounds were determined using a trans-phosphorylation assay.
(§2) Specific peptide or protein substrates are trans-phosphorylated by their specific ser-thr or tyr kinase in the presence of ATP traced with ^33P-γ-ATP, and in the presence of their own optimal buffer and cofactors.
At the end of the phosphorylation reaction, more than 98% unlabeled ATP and radioactive ATP is captured by an excess of the ion exchange dowex resin; the resin then settles down to the bottom of the reaction plate by gravity. Supernatant is subsequently withdrawn and transferred into a counting plate, then evaluated by β-counting.
The buffer for MPS1 assay was composed of HEPES 50 mM, at pH 7.5, with 2.5 mM MgCl2, 1 mM MnCl2, 1 mM DTT, 3 microM Na3VO4, 2 mM β-glycerophosphate and 0.2 mg/mL BSA.
The assay was run with a final concentration MPS1 of 5 nM, in the presence of 15 microM ATP and 1.5 nM ^33P-γ-ATP; the substrate was P38-βtide, used at 200 microM.
a) for percent inhibition studies (HTS), individual dilution plates at 1 mM are diluted at a 3× concentration (30 microM) in ddH2O (3% DMSO=final concentration) using a Beckman NX automated pipetting platform. The same instrument is used for distributing the diluted mother plates into the test plates. b) for IC50 determination (KSS platform), 100 microL of each compound at 1 mM in 100% DMSO are transferred from the original plate into the first column of another 96 well plate (A1 to G1); well H1 is left empty for the internal standard inhibitor, usually staurosporine.
An automated station for serial dilutions (Biomek FX, Beckman) is used for producing 1:3 dilutions in 100% DMSO, from line A1 to A10, and for all the seven compounds in the column. Moreover, 4-5 copies of daughter plates are prepared by reformatting 5 microL of this first set of 100% DMSO dilution plates into 384 deep well-plates: one copy of the daughter plates with the serial dilutions of test compounds will be thaw the day of the experiments, reconstituted at a 3× concentration with water and used in the IC50 determination assays. In a standard experiment, the highest concentration (3×) of all compounds is 30 microM, while the lowest one is 1.5 nM.
384-well plates, V bottom (test plates) are prepared with 5 microL of the compound dilution (3×) and then placed onto a PlateTrak 12 robotized station (Perkin Elmer; the robot has one 384-tips pipetting head for starting the assay plus one 96-tips head for dispensing the resin) together with one reservoir for the Enzyme mix (3×) and one for the ATP mix (3×).
At the start of the run, the robot aspirates 5 microL of ATP mix, makes an air gap inside the tips (2 microL) and aspirates 5 microL of MPS1 mix. The following dispensation into the plates allows the kinase reaction to start upon 3 cycles of mixing, done by the robot itself.
The robot incubates the plates for 60 minutes at room temperature, and then stops the reaction by pipetting 70 microL of dowex resin suspension into the reaction mix. Three cycles of mixing are done immediately after the addition of the resin.
Another mixing cycle is performed after all the plates are stopped, this time using normal tips: the plates are then allowed to rest for about one hour in order to maximize ATP capture. […]

For another experiment, the target named is PIM-1 (Homo sapiens (Human), UniProt P11309). The experiment in a line: Biochemical assay for inhibitors of PIM-1 kinase activity (trans-phosphorylation, Dowex). As to conditions: 200 microM ATP, 25 microM Aktide, 1 nM enzyme. How it is done:
Biochemical Assay for Inhibitors of PIM-1 Kinase Activity
as §1, §2
At the end of the phosphorylation reaction, more than 98% unlabeled ATP and radioactive ATP is captured by an excess of the ion exchange dowex resin; the resin then settles down to the bottom of the reaction plate by gravity.
Supernatant is subsequently withdrawn and transferred into a counting plate, then evaluated by β-counting.
The buffer for PIM-1 assay was composed of HEPES 50 mM, at pH 7.5, with 10 mM MgCl2, 1 mM DTT, 3 microM NaVO3, and 0.2 mg/ml BSA
Full-length human PIM-1 was expressed and purified as described in Bullock A N, et al., J. Biol. Chem. 2005, 280, 41675-82.
ATP concentration: 200 microM
Enzyme concentration: 1 nM
Substrate concentration Aktide (Chemical Abstract Service Registry Number 324029-01-8): 25 microM
For IC50 determination, test compounds are received as a 1 mM solution in 100% DMSO and distributed into 96-well plates: compounds are then plated into the first column of a new 96-well plate (A1 to G1), 100 microL/well.
An automated station (Biomek FX, Beckman) is used for serial dilutions, producing 1:3 dilutions in 100% DMSO, from line A1 to A10, for all the compounds in the column. Moreover, 4-5 copies of daughter plates are prepared by reformatting 5 microL of this first set of 100% DMSO dilution plates into 384-deep well plates: one copy of these serial dilution plates with the test compounds is thawed on the day of study, reconstituted at the working concentration (3-fold the final concentration) with 162 microL/well of water and used for IC50 determination assays. In a standard experiment, the highest concentration (3×) of compounds is typically 30 microM, while the lowest one is typically 1.5 nM.
Each 384-well plate generates at least one curve of the standard inhibitor staurosporine and reference wells (total enzyme activity vs. no enzymatic activity) for evaluation of Z′ and signal to background (S/B) ratio.
384-well plates, V bottom (test plates) are prepared with 5 microL of compound diluted as previously described (3×) and then placed onto a PlateTrak 12 robotized station (Perkin Elmer; the robot has one 384-tip pipetting head for assay start, plus one 96-tip head for dispensing resin) together with one reservoir for Enzyme mix (3×) and one for ATP mix (3×).
Data are analyzed by an internally customized version of the “Assay Explorer” SW package, which provides sigmoidal fitting of the ten-dilution curves for IC50 determination in secondary assay/hit confirmation routines.

For another experiment, the target named is PIM-2 (Homo sapiens (Human), UniProt Q9P1W9). The experiment in a line: PIM-2 kinase inhibition assay: Dowex technique. Format: biochemical. Particulars: 4 microM ATP, 5 microM Aktide, 1.5 nM enzyme. How it is done: Method for PIM-2 Kinase Inhibition Assay: Dowex Technique
PIM-2, sequence (Q9P1W9 whole entry): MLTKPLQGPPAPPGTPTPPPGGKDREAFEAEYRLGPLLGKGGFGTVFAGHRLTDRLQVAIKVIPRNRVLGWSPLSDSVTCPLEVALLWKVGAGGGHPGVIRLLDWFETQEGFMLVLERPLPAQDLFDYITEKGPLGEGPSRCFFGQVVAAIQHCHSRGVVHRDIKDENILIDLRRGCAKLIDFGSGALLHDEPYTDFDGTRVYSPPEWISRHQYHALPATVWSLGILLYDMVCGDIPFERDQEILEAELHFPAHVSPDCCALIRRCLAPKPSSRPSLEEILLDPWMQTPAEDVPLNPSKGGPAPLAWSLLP
The buffer for PIM-2 assay was composed of HEPES 50 mM, at pH 7.5, with 1 mM MgCl2, 1 mM DTT, 3 microM Na3VO4, and 0.2 mg/mL BSA
Full-length human PIM-2 was expressed and purified as described in Fedorov O, et al., PNAS 2007 104, 51, 20523-28.
Enzyme concentration=1.5 nM
Aktide substrate (Chemical Abstract Service Registry Number 324029-01-8)=5 microM
See above: same procedure as described for PIM-1.

MPS1, sequence (P33981 2-857): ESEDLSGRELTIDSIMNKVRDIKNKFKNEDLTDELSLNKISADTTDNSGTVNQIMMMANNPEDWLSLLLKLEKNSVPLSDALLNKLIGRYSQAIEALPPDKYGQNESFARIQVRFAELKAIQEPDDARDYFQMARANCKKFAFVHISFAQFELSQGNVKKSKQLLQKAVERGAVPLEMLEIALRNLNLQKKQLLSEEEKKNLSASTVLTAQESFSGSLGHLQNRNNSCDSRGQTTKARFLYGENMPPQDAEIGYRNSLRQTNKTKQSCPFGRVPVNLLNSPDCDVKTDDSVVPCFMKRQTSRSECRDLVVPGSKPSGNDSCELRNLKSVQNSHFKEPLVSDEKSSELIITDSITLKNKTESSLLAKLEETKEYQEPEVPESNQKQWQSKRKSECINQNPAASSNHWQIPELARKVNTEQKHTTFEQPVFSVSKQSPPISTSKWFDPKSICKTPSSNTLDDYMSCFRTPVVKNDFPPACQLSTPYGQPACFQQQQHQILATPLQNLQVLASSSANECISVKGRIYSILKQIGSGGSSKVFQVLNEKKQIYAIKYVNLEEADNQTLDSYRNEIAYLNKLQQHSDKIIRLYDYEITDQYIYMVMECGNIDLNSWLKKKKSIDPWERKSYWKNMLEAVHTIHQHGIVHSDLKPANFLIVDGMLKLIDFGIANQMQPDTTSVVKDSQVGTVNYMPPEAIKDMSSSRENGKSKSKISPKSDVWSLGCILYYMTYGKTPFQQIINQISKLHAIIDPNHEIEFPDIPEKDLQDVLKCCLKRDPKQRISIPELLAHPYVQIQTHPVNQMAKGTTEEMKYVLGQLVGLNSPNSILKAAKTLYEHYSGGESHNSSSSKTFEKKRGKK
PIM-1, sequence (P11309 whole entry): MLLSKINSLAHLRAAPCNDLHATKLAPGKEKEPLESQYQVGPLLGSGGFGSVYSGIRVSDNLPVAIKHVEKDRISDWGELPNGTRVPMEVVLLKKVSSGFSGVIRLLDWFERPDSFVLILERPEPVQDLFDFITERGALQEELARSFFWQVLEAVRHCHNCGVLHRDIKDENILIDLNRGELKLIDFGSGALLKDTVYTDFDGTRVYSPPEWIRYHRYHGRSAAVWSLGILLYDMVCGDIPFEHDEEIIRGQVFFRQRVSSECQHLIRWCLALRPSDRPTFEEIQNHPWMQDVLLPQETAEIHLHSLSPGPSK

Consider `Cn1c2c(c(C(N)=O)c1-c1ccccc1)CCc1cnc(N)nc1-2` [compound 3, 2-amino-9-methyl-8-phenyl-6,9-dihydro-5H-pyrrolo[3,2-h]quinazoline-7-carboxamide, reference compound], for which the IC50 against MPS1 is > 5 µM; at PIM-1 it was > 5 µM; on PIM-2, > 10 µM.

On to `Cn1c(-c2ccccc2)c(C(N)=O)c2ccc3cnc(N)nc3c21` [compound 4, 2-amino-9-methyl-8-phenyl-9H-pyrrolo[3,2-h]quinazoline-7-carboxamide, reference compound], for which the IC50 is > 5 µM at MPS1, > 5 µM at PIM-1 and > 10 µM on PIM-2.

Source of the values: US8975267B2, “Tricyclic pyrrolo derivatives, process for their preparation and their use as kinase inhibitors” (Nerviano Medical Sciences S.r.l., priority 2011, dated 2015).
